Legend:
lambsquarters [1] = assay: Test B pre-/postemergence herbicide test; assay type: in vivo, Chenopodium album; conditions: for Plant response rating (0 to 100 scale), Lambsquarters: 0 is no effect, preemergence
In short: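 Test chemicals in a non-phytotoxic solvent mixture with surfactant were applied preemergence to seeded species and postemergence to plants 2-18 cm tall (1- to 4-leaf stage); rice and barnyardgrass were also tested in a flooded paddy at the 2-leaf stage. Visual rating versus controls after 13-15 days in greenhouse, scale 0 (no effect) to 100 (complete control).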

johnsongrass = assay: Test C pre-/postemergence herbicide test; assay type: in vivo, Sorghum halepense; conditions: for Plant response rating (0 = no effect, 100 = complete control), Johnsongrass: 125 g ai/ha
In short: (§1)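 Emerged plants at the 1- to 4-leaf stage (2–18 cm), or freshly planted seeds, received test chemicals in a non-phytotoxic solvent mixture with surfactant. Response was visually scored against controls after 12 to 14 days in the greenhouse, on a 0 (no effect) to 100 (complete control) scale.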

lambsquarters [2] = assay: Test C pre-/postemergence herbicide test; assay type: in vivo, Chenopodium album; conditions: for Plant response rating (0 = no effect, 100 = complete control), Lambsquarters: 125 g ai/ha
In short: as §1

[3] = tested on: common (oilseed) sunflower; assay: Test C pre-/postemergence herbicide test; assay type: in vivo, Helianthus annuus; conditions: for Plant response rating (0 = no effect, 100 = complete control), Sunflower: 125 g ai/ha
In short: as §1

[4] = tested on: smallflower umbrella sedge; assay: Test C flooded paddy test; assay type: in vivo, Cyperus difformis
[5] = 125 g ai/ha, 100 is complete control
[6] = 125 g ai/ha, visual rating, scale 0 (no effect) to 100 (complete control), postemergence
[7] = Postemergence, 500 g ai/ha, scale 0 (no effect) to 100 (complete control)
[8] = 62 g ai/ha, preemergence, scale 0 to 100
[9] = 250 g ai/ha, scale 0-100, preemergence
[10] = 500 g ai/ha, scale 0 to 100 (0 no effect, 100 complete control), visual, 12 to 14 days, preemergence
[11] = 125 g ai/ha, scale 0 to 100 (0 no effect, 100 complete control)
[12] = 250 g ai/ha, scale of 0 to 100, 0 is no effect, 100 is complete control
[13] = 500 g ai/ha, visual rating after 12 to 14 days, scale 0 to 100 (0 no effect, 100 complete control)

CCn1nc2c(c1C(=O)Nc1cc(C(=O)N(C)C)ccc1F)CCC2(C)C [Compound 352, N-[5-[(dimethylamino)carbonyl]-2-fluorophenyl]-2-ethyl-2,4,5,6-tetrahydro-6,6-dimethyl-3-cyclopentapyrazolecarboxamide]
Plant response rating (0 to 100 scale), Lambsquarters (lambsquarters [1]; [5]): 90
pest or weed control at 125 g/ha (lambsquarters [1]; Chenopodium album, post-emergence, 336 h, 125 g ai/ha, visual rating, scale 0 (no effect) to 100 (complete control), read-out: Lambsquarters plant response rating): 10%
pest or weed control at 500 g/ha (lambsquarters [1]; Chenopodium album, post-emergence, 336 h, postemergence, 500 g ai/ha, scale 0 to 100, 0 is no effect, 100 is complete control, read-out: Lambsquarters plant response rating): 60%
pest or weed control at 500 g/ha (lambsquarters [1]; Chenopodium album, pre-emergence, 336 h, 500 g ai/ha, visual rating, 0 = no effect, 100 = complete control, read-out: Plant response rating, Lambsquarters): 100%
Plant response rating (0 = no effect, 100 = complete control), Johnsongrass (johnsongrass; preemergence): 90
pest or weed control at 62 g/ha (johnsongrass; Sorghum halepense, pre-emergence, 62 g ai/ha, preemergence, scale 0 to 100, read-out: Plant response rating, Johnsongrass): 50%
pest or weed control at 250 g/ha (johnsongrass; Sorghum halepense, pre-emergence, 250 g ai/ha, scale 0-100, read-out: Plant response rating, Johnsongrass): 90%
pest or weed control at 500 g/ha (johnsongrass; Sorghum halepense, pre-emergence, 500 g ai/ha, scale 0 to 100 (0 no effect, 100 complete control), visual, 12 to 14 days, read-out: Plant response rating, Johnsongrass): 100%
Plant response rating (0 = no effect, 100 = complete control), Lambsquarters (lambsquarters [2]; preemergence): 100
pest or weed control at 62 g/ha (lambsquarters [2]; Chenopodium album, pre-emergence, 62 g ai/ha, preemergence, scale 0 to 100, read-out: Plant response rating, Lambsquarters): 85%
pest or weed control at 250 g/ha (lambsquarters [2]; Chenopodium album, pre-emergence, 250 g ai/ha, scale 0-100, read-out: Plant response rating, Lambsquarters): 100%
pest or weed control at 500 g/ha (lambsquarters [2]; Chenopodium album, pre-emergence, 500 g ai/ha, scale 0 to 100 (0 no effect, 100 complete control), visual, 12 to 14 days, read-out: Plant response rating, Lambsquarters): 100%
Plant response rating (0 = no effect, 100 = complete control), Sunflower ([3]; preemergence): 0
pest or weed control at 62 g/ha ([3]; Helianthus annuus, pre-emergence, 62 g ai/ha, preemergence, scale 0 to 100, read-out: Plant response rating, Sunflower): 0%
pest or weed control at 250 g/ha ([3]; Helianthus annuus, pre-emergence, 250 g ai/ha, scale 0-100, read-out: Plant response rating, Sunflower): 0%
pest or weed control at 500 g/ha ([3]; Helianthus annuus, pre-emergence, 500 g ai/ha, scale 0 to 100 (0 no effect, 100 complete control), visual, 12 to 14 days, read-out: Plant response rating, Sunflower): 0%
pest or weed control at 62 g/ha ([4]; Cyperus difformis, 62 g ai/ha, scale 0 to 100, read-out: Sedge, Umbrella plant response rating): 50%
pest or weed control at 125 g/ha ([4]; Cyperus difformis, 125 g ai/ha, scale 0 to 100 (0 no effect, 100 complete control), read-out: Sedge, Umbrella plant response rating): 75%
pest or weed control at 250 g/ha ([4]; Cyperus difformis, 250 g ai/ha, scale of 0 to 100, 0 is no effect, 100 is complete control, read-out: Sedge, Umbrella plant response rating): 90%
pest or weed control at 500 g/ha ([4]; Cyperus difformis, 500 g ai/ha, visual rating after 12 to 14 days, scale 0 to 100 (0 no effect, 100 complete control), read-out: Plant response rating, Sedge, Umbrella): 95%

CCNC(=O)c1cccc(NC(=O)c2nn(C(C)(C)C)nc2C)c1 [Compound 392]
Plant response rating (0 to 100 scale), Lambsquarters (lambsquarters [1]; [5]): 100
Lambsquarters plant response rating (lambsquarters [1]; [6]): 70
Lambsquarters plant response rating (lambsquarters [1]; [7]): 90
Plant response rating, Johnsongrass (johnsongrass; [8]): 85
Plant response rating (0 = no effect, 100 = complete control), Johnsongrass (johnsongrass; preemergence): 100
Plant response rating, Johnsongrass (johnsongrass; [9]): 100
Plant response rating, Johnsongrass (johnsongrass; [10]): 100
Plant response rating, Lambsquarters (lambsquarters [2]; [8]): 100
Plant response rating (0 = no effect, 100 = complete control), Lambsquarters (lambsquarters [2]; preemergence): 100
Plant response rating, Lambsquarters (lambsquarters [2]; [9]): 100
Plant response rating, Lambsquarters (lambsquarters [2]; [10]): 100
Plant response rating, Sunflower [3, 8]: 10
Plant response rating (0 = no effect, 100 = complete control), Sunflower ([3]; preemergence): 50
Plant response rating, Sunflower [3, 10]: 100
Sedge, Umbrella plant response rating ([4]; 62 g ai/ha, scale 0 to 100): 70
Sedge, Umbrella plant response rating [4, 11]: 75
Sedge, Umbrella plant response rating [4, 12]: 85
Plant response rating, Sedge, Umbrella [4, 13]: 85

CCc1nn(C(C)(C)C)nc1C(=O)Nc1cccc(C(=S)N(C)C)c1 [Compound 395]
Plant response rating (0 to 100 scale), Lambsquarters (lambsquarters [1]; [5]): 100
Lambsquarters plant response rating (lambsquarters [1]; [6]): 80
Lambsquarters plant response rating (lambsquarters [1]; [7]): 100
Plant response rating, Johnsongrass (johnsongrass; [8]): 95
Plant response rating (0 = no effect, 100 = complete control), Johnsongrass (johnsongrass; preemergence): 100
Plant response rating, Johnsongrass (johnsongrass; [9]): 100
Plant response rating, Johnsongrass (johnsongrass; [10]): 100
Plant response rating, Lambsquarters (lambsquarters [2]; [8]): 100
Plant response rating (0 = no effect, 100 = complete control), Lambsquarters (lambsquarters [2]; preemergence): 100
Plant response rating, Lambsquarters (lambsquarters [2]; [9]): 100
Plant response rating, Lambsquarters (lambsquarters [2]; [10]): 100
Plant response rating, Sunflower [3, 8]: 0
Plant response rating (0 = no effect, 100 = complete control), Sunflower ([3]; preemergence): 0
Plant response rating, Sunflower [3, 9]: 50
Plant response rating, Sunflower [3, 10]: 55
Sedge, Umbrella plant response rating ([4]; 62 g ai/ha, scale 0 to 100): 70
Sedge, Umbrella plant response rating [4, 11]: 80
Sedge, Umbrella plant response rating [4, 12]: 85
Plant response rating, Sedge, Umbrella [4, 13]: 85

CCc1nn(C(C)(C)C)nc1C(=S)Nc1cccc(C(=S)N(C)C)c1 [Compound 396]
Plant response rating (0 to 100 scale), Lambsquarters (lambsquarters [1]; [5]): 100
Lambsquarters plant response rating (lambsquarters [1]; [6]): 80
Lambsquarters plant response rating (lambsquarters [1]; [7]): 100
Plant response rating, Johnsongrass (johnsongrass; [8]): 95
Plant response rating (0 = no effect, 100 = complete control), Johnsongrass (johnsongrass; preemergence): 100
Plant response rating, Johnsongrass (johnsongrass; [9]): 100
Plant response rating, Johnsongrass (johnsongrass; [10]): 100
Plant response rating, Lambsquarters (lambsquarters [2]; [8]): 100
Plant response rating (0 = no effect, 100 = complete control), Lambsquarters (lambsquarters [2]; preemergence): 100
Plant response rating, Lambsquarters (lambsquarters [2]; [9]): 100
Plant response rating, Lambsquarters (lambsquarters [2]; [10]): 100
Plant response rating, Sunflower [3, 8]: 0
Plant response rating (0 = no effect, 100 = complete control), Sunflower ([3]; preemergence): 0
Plant response rating, Sunflower [3, 9]: 0
Plant response rating, Sunflower [3, 10]: 15
Sedge, Umbrella plant response rating ([4]; 62 g ai/ha, scale 0 to 100): 70
Sedge, Umbrella plant response rating [4, 11]: 75
Sedge, Umbrella plant response rating [4, 12]: 85
Plant response rating, Sedge, Umbrella [4, 13]: 90

— patent publication US20060069132A1, “Azolecarboxamide herbicides” (priority 2004, published 2006)
